What was measured:
[1] = tested on: RBL-2H3, a rat basophilic leukemia cell to express hematopoietic prostaglandin D synthase; assay: Prostaglandin D2 production inhibition test using cells (A23187-induced, EIA); format: cell-based; conditions: RBL-2H3 cells, A23187 2.5 μM; for inhibition at 10 µM: Rattus norvegicus, RBL-2H3, Drug Concentration 10 μM, read-out: Inhibitory Ratio of Prostaglandin D2 (PGD2) Production (%); for Inhibitory Ratio of Prostaglandin D2 (PGD2) Production (%): Drug Concentration 10 μM
Description: RBL-2H3, a rat basophilic leukemia cell to express hematopoietic prostaglandin D synthase, was inoculated in a 24 well plate and incubated overnight. After replacement with a medium in the presence or absence of a test compound, preincubation was carried out at 37° C. for one hour. After washing of the cells with PBS(-), the medium was replaced with a Hepes buffer solution (pH7.4) in the presence or absence of the test compound, and incubation was continued at 37° C. for 15 minutes. Then, calcium ionophore (A23187) at a final concentration of 2.5 μM was added, and incubation was carried out at 37° C. for 15 minutes to induce the production of PGD2. The supernatant of the cells was collected, and the amount of PGD2 flowed out in the supernatant was measured by EIA kit by Cayman. The inhibitory ratio of the production of PGD2 by the test compound was calculated assuming the amount of PGD2 produced by A23187 in the absence of the test compound as being 100%.

[2] = molecular target: human hematopoietic prostaglandin D2 synthase (Homo sapiens, UniProt O60760); assay: Inhibitory activity against spleen-type (hematopoietic) prostaglandin D2 synthase, [14C]PGH2 to PGD2, TLC; format: biochemical; conditions: for inhibition at 10 µM / inhibition at 30 µM: read-out: Inhibitory Ratio of Prostaglandin D2 (PGD2) Synthase (%)
human hematopoietic prostaglandin D2 synthase, sequence (O60760 whole entry): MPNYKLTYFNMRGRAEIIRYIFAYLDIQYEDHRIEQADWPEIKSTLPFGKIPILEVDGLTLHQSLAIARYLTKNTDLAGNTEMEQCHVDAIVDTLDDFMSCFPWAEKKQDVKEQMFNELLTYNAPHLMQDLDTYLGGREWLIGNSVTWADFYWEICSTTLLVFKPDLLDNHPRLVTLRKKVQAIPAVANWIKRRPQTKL
Description: A buffer solution of 100 mM Tris (hydroxymethyl)aminomethane/HCl buffer (pH8.0) containing glutathione (0.1 mM) and human hematopoietic prostaglandin D2 synthase (adequate quantity) was preincubated at 25° C. for 5 minutes in the presence or absence of a test compound, and then 14C labeled prostaglandin H2 ([14C]PGH2) (10 μM) was added, and the buffer solution was further incubated at 25° C. for one minute. A mixture of ether, methanol, and citric acid was added to the reaction mixture, and the ether layer was developed on silica gel thin-layer chromatography (TLC) (eluent=ether: methanol: acetic acid=90:2:1), and the PGD2 produced was measured by exposure to an imaging plate. The enzyme inhibitory rates of test compounds were calculated assuming the amount of production of PGD2 without the test compound being 100%.

inhibition at 10 µM ([2]; Drug Concentration 10 μM) [%]	inhibition at 30 µM ([2]; Drug Concentration 30 μM) [%]	SMILES	further results
50	76	Cc1nn(-c2ccccc2)c(O)c1/C=N/n1c(C)nc2ccccc2c1=O [Compound 1, 3-[(5-hydroxy-3-methyl-1-phenylpyrazol-4-yl)methylidene]-amino-2-methyl-3,4-dihydroquinazolin-4-one]	inhibition at 10 µM [1]: 26%
13	–	CCOc1c(/C=N/n2c(C)nc3ccccc3c2=O)c(C)nn1-c1ccccc1 [Compound 3, 3-[(5-ethoxy-3-methyl-1-phenylpyrazol-4-yl)methylidene]amino-2-methyl-3,4-dihydroquinazolin-4-one]	inhibition at 10 µM [1]: 21%
18	–	CCc1nn(-c2ccccc2)c(O)c1/C=N/n1c(C)nc2ccccc2c1=O [Compound 6, 3-[(3-ethyl-5-hydroxy-1-phenylpyrazol-4-yl)methylidene]-amino-2-methyl-3,4-dihydroquinazolin-4-one]	–
96	105	Cc1nc2ccccc2c(=O)n1/N=C/c1c(C(F)(F)F)nn(-c2ccccc2)c1O [Compound 7, 3-[(5-hydroxy-1-phenyl-3-(trifluoromethyl)pyrazol-4-yl)-methylidene]amino-2-methyl-3,4-dihydroquinazolin-4-one]	inhibition at 10 µM [1]: 50%
45	–	CCOC(=O)CCCc1nn(-c2ccccc2)c(O)c1C=Nn1c(C)nc2ccccc2c1=O [Compound 11, 3-({3-[3-(ethoxycarbonyl)propyl]-5-hydroxy-1-phenylpyrazol-4-yl}methylidene)amino-2-methyl-3,4-dihydroquinazolin-4-one]	–
46	–	Cc1nc2ccccc2c(=O)n1N=Cc1c(CCCC(=O)O)nn(-c2ccccc2)c1O [Compound 12, 3-{[3-(3-carboxypropyl)-5-hydroxy-1-phenylpyrazol-4-yl]methylidene}amino-2-methyl-3,4-dihydroquinazolin-4-one]	–
-2	27	Cc1nn(C)c(O)c1/C=N/n1c(C)nc2ccccc2c1=O [Compound 14, 3-[(1,3-dimethyl-5-hydroxypyrazol-4-yl)methylidene]amino-2-methyl-3,4-dihydroquinazolin-4-one]	–
20	53	Cc1nn(-c2ccccc2Cl)c(O)c1C=Nn1c(C)nc2ccccc2c1=O [Compound 15, 3-{[1-(2-chlorophenyl)-3-methyl-5-hydroxypyrazol-4-yl]-methylidene}amino-2-methyl-3,4-dihydroquinazolin-4-one]	–
50	81	Cc1nn(-c2cccc(Cl)c2)c(O)c1C=Nn1c(C)nc2ccccc2c1=O [Compound 16, 3-{[1-(3-chlorophenyl)-3-methyl-5-hydroxypyrazol-4-yl]-methylidene}amino-2-methyl-3,4-dihydroquinazolin-4-one]	–
23	37	Cc1ccc(-n2nc(C)c(C=Nn3c(C)nc4ccccc4c3=O)c2O)cc1 [Compound 18, 3-{[3-methyl-1-(4-methylphenyl)-5-hydroxypyrazol-4-yl]-methylidene}amino-2-methyl-3,4-dihydroquinazolin-4-one]	–
6	50	COc1ccc(-n2nc(C)c(C=Nn3c(C)nc4ccccc4c3=O)c2O)cc1 [Compound 19, 3-{[3-methyl-1-(4-methoxyphenyl)-5-hydroxypyrazol-4-yl]-methylidene}amino-2-methyl-3,4-dihydroquinazolin-4-one]	–
13	51	CCc1nc2ccccc2c(=O)n1/N=C/c1c(C)nn(-c2ccccc2)c1O [Compound 21]	–
14	44	Cc1nn(-c2ccccc2)c(O)c1/C=N/n1c(C(C)C)nc2ccccc2c1=O [Compound 22, 3-[(5-hydroxy-3-methyl-1-phenylpyrazol-4-yl)methylidene]-amino-2-isopropyl-3,4-dihydroquinazolin-4-one]	–
–	–	Cc1nn(-c2ccccc2)c(O)c1/C=N/n1c(-c2ccccc2)nc2ccccc2c1=O [Compound 24, 3-[(5-hydroxy-3-methyl-1-phenylpyrazol-4-yl)methylidene]-amino-2-phenyl-3,4-dihydroquinazolin-4-one]	inhibition at 10 µM [1]: 59%
–	–	Cc1nn(-c2ccccc2)c(O)c1/C=N/n1c(C(C)(C)C)nc2ccccc2c1=O [Compound 25, 2-tert-butyl-3-[(5-hydroxy-3-methyl-1-phenylpyrazol-4-yl)methylidene]amino-3,4-dihydroquinazolin-4-one]	inhibition at 10 µM [1]: 47%
86	71	Cc1nn(-c2ccccc2)c(O)c1/C=N/n1c(CO)nc2ccccc2c1=O [Compound 26, 3-[(5-hydroxy-3-methyl-1-phenylpyrazol-4-yl)methylidene]-amino-2-hydroxymethyl-3,4-dihydroquinazolin-4-one]	–
19	30	O=c1c2ccccc2nc(CO)n1/N=C/c1c(C(F)(F)F)nn(-c2ccccc2)c1O [Compound 28]	–
–	–	COCc1nc2ccccc2c(=O)n1N=Cc1c(C)nn(-c2ccccc2)c1O [Compound 29, 3-[(5-hydroxy-3-methyl-1-phenylpyrazol-4-yl)methylidene]-amino-2-methoxymethyl-3,4-dihydroquinazolin-4-one]	Inhibitory Ratio of Prostaglandin D2 (PGD2) Synthase (%) ([2]; Drug Concentration 10 μM): 20%; Inhibitory Ratio of Prostaglandin D2 (PGD2) Synthase (%) ([2]; Drug Concentration 30 μM): 40%
–	–	COc1cccc(-c2nc3ccccc3c(=O)n2N=Cc2c(C)nn(-c3ccccc3)c2O)c1 [Compound 31, 3-[(5-hydroxy-3-methyl-1-phenylpyrazol-4-yl)methylidene]-amino-2-(3-methoxyphenyl)-3,4-dihydroquinazolin-4-one]	Inhibitory Ratio of Prostaglandin D2 (PGD2) Synthase (%) ([2]; Drug Concentration 10 μM): 23%; Inhibitory Ratio of Prostaglandin D2 (PGD2) Synthase (%) ([2]; Drug Concentration 30 μM): 26%
–	–	COc1ccccc1-c1nc2ccccc2c(=O)n1N=Cc1c(C)nn(-c2ccccc2)c1O [Compound 32, 3-[(5-hydroxy-3-methyl-1-phenylpyrazol-4-yl)methylidene]-amino-2-(2-methoxyphenyl)-3,4-dihydroquinazolin-4-one]	Inhibitory Ratio of Prostaglandin D2 (PGD2) Synthase (%) ([2]; Drug Concentration 10 μM): 12%; Inhibitory Ratio of Prostaglandin D2 (PGD2) Synthase (%) ([2]; Drug Concentration 30 μM): 15%
27	61	Cc1nn(-c2ccccc2)c(O)c1/C=N/n1c(C)nc2cccc(C)c2c1=O [Compound 33, 2,5-dimethyl-3-[(5-hydroxy-3-methyl-1-phenylpyrazol-4-yl)methylidene]amino-3,4-dihydroquinazolin-4-one]	–
71	84	Cc1nn(-c2ccccc2)c(O)c1/C=N/n1c(C)nc2c(C)cccc2c1=O [Compound 34, 2,8-dimethyl-3-[(5-hydroxy-3-methyl-1-phenylpyrazol-4-yl)methylidene]amino-3,4-dihydroquinazolin-4-one]	–
15	68	Cc1nn(-c2ccccc2)c(O)c1/C=N/n1c(C)nc2ccc(Cl)cc2c1=O [Compound 35, 6-chloro-3-[(5-hydroxy-3-methyl-1-phenylpyrazol-4-yl)methylidene]amino-2-methyl-3,4-dihydroquinazolin-4-one]	–
39	60	Cc1nn(-c2ccccc2)c(O)c1/C=N/n1c(C)nc2cc(Cl)ccc2c1=O [Compound 36, 7-chloro-3-[(5-hydroxy-3-methyl-1-phenylpyrazol-4-yl)-methylidene]amino-2-methyl-3,4-dihydroquinazolin-4-one]	–
20	51	COc1cc2nc(C)n(/N=C/c3c(C)nn(-c4ccccc4)c3O)c(=O)c2cc1OC [Compound 38, 6,7-dimethoxy-3-[(5-hydroxy-3-methyl-1-phenylpyrazol-4-yl)-methylidene]amino-2-methyl-3,4-dihydroquinazolin-4-one]	–
–	–	Cc1nn(-c2ccccc2)c(O)c1C=NN1C(=O)c2ccccc2NC1CO (stereo not drawn) [Compound 40, 3-[(5-hydroxy-3-methyl-1-phenylpyrazol-4-yl)-methylidene]amino-2-hydroxymethyl-1,2,3,4-tetrahydroquinazolin-4-one]	inhibition at 10 µM [1]: 74%
–	–	Cc1nn(-c2ccccc2)c(O)c1C=NN1C(=O)c2ccccc2NC1CO (stereo not drawn) [Compound 41, 3-[(5-hydroxy-3-methyl-1-phenylpyrazol-4-yl)-methylidene]amino-2-hydroxymethyl-1,2,3,4-tetrahydroquinazolin-4-one]	Inhibitory Ratio of Prostaglandin D2 (PGD2) Production (%) [1]: 80%
–	–	Cc1nc2ccccc2c(=O)n1N=Cc1c(C23CC4CC(CC(C4)C2)C3)nn(-c2ccccc2)c1O [Compound 44]	Inhibitory Ratio of Prostaglandin D2 (PGD2) Production (%) [1]: 100%
–	–	Cc1nc2ccccc2c(=O)n1N=Cc1c(-c2ccc(C(C)(C)C)cc2)nn(-c2ccccc2)c1O [Compound 45]	Inhibitory Ratio of Prostaglandin D2 (PGD2) Production (%) [1]: 100%

Source: patent publication US20060229324A1, “Quinazolin-4-one derivatives” (priority 2002, published 2006)
